# Experimental data reported in patent US9040542B2, “Solid forms of gyrase inhibitor (R)-1-ethyl-3-[6-fluoro-5-[2-(1-hydroxy-1-methyl-ethyl)pryimidin-5-yl]-7-(tetrahydrofuran-2-yl)-1H-benzimidazol-2-yl]urea” (priority 2011, dated 2015).
# Where “and” joins values, the source holds several entries; their conditions need not be identical. Equal values may be shown once.
# How the values were obtained:
# [1] = test system: Staphylococcus aureus ATCC 29213; experiment: MIC, Protocol #1 microdilution broth; format: cell-based
# [2] = test system: Enterococcus faecium ATCC 49624; experiment: MIC, Protocol #1 microdilution broth; format: cell-based
# [3] = test system: Streptococcus pneumoniae ATCC 10015; experiment: MIC, Protocol #1 microdilution broth; format: cell-based; details: Streptococcus pneumoniae ATCC 10015, with Laked Horse Blood
# [4] = test system: Bacillus subtilis ATCC 6638; experiment: MIC, Protocol #1 microdilution broth; format: cell-based
# [5] = test system: Bacillus subtilis (168) ATCC 6051; experiment: MIC, Protocol #1 microdilution broth; format: cell-based
# [6] = test system: Neisseria gonorrhoeae ATCC 35541; experiment: MIC, Protocol #3 agar dilution; format: cell-based
# [7] = test system: Neisseria gonorrhoeae ATCC 49226; experiment: MIC, Protocol #3 agar dilution; format: cell-based
# M. avium 3404.4 = experiment: MIC, Protocol #4 Mycobacterium species; format: cell-based
# N. asteroids 2039 = experiment: MIC, Protocol #4 Mycobacterium species; format: cell-based
# M. kansasii 303 = experiment: MIC, Protocol #4 Mycobacterium species; format: cell-based
# [8] = test system: M. tuberculosis H37Rv ATCC 25618; experiment: MIC, Protocol #4 Mycobacterium species; format: cell-based
# [9] = test system: M. tuberculosis Erdman ATCC 35801; experiment: Protocol #5 Mycobacterium tuberculosis Serum Shift MIC Assay; format: cell-based
# M. abscessus BB2 = experiment: MIC, Protocol #4 Mycobacterium species; format: cell-based
# M. abscessus MC 5931 = experiment: MIC, Protocol #4 Mycobacterium species; format: cell-based
# M. abscessus MC 5605 = experiment: MIC, Protocol #4 Mycobacterium species; format: cell-based
# M. abscessus MC 6025 = experiment: MIC, Protocol #4 Mycobacterium species; format: cell-based
# M. abscessus MC 5908 = experiment: MIC, Protocol #4 Mycobacterium species; format: cell-based; details: in µg/mL
# M. abscessus BB5 = experiment: MIC, Protocol #4 Mycobacterium species; format: cell-based
# M. abscessus MC 5922 = experiment: MIC, Protocol #4 Mycobacterium species; format: cell-based
# M. abscessus MC 5960 = experiment: MIC, Protocol #4 Mycobacterium species; format: cell-based
# M. abscessus BB1 = experiment: MIC, Protocol #4 Mycobacterium species; format: cell-based
# M. abscessus BB8 = experiment: MIC, Protocol #4 Mycobacterium species; format: cell-based
# Staphylococcus aureus = experiment: MIC90 panel, Protocol #1 microdilution broth; format: cell-based; details: 67 isolates
# [10] = test system: Staphlococcus epidermidis; experiment: MIC90 panel, Protocol #1 microdilution broth; format: cell-based, Staphylococcus epidermidis; details: 35 isolates
# Enterococcus faecalis = experiment: MIC90 panel, Protocol #1 microdilution broth; format: cell-based; details: 34 isolates
# Enterococcus faecium = experiment: MIC90 panel, Protocol #1 microdilution broth; format: cell-based; details: 33 isolates
# Streptococcus pneumoniae = experiment: MIC90 panel, Protocol #1 microdilution broth; format: cell-based; details: 67 isolates
# [11] = test system: β-haemolytic streptococci (Groups A, B, C and G); experiment: MIC90 panel, Protocol #1 microdilution broth; format: cell-based; details: 28 isolates
# Acinetobacter baumannii = experiment: MIC90 panel, Protocol 2 microdilution broth; format: cell-based; details: 12 isolates
# Excerpt: (§1) The specific protocols used were as follows:
# (§2) Drug dilutions, inoculation, MIC determination: • 1.
# Enterobacter cloacae = experiment: MIC90 panel, Protocol 2 microdilution broth; format: cell-based; details: 12 isolates
# Excerpt: as §1, §2
# Escherichia coli = experiment: MIC90 panel, Protocol 2 microdilution broth; format: cell-based; details: 12 isolates
# Excerpt: as §1, §2
# Haemophilus influenzae = experiment: MIC90 panel, Protocol 2 microdilution broth; format: cell-based; details: 55 isolates
# Excerpt: as §1, §2
# Klebsiella pneumoniae = experiment: MIC90 panel, Protocol 2 microdilution broth; format: cell-based; details: 12 isolates
# Excerpt: as §1, §2
# Moraxella catarrhalis = experiment: MIC90 panel, Protocol 2 microdilution broth; format: cell-based; details: 26 isolates
# Excerpt: as §1, §2
# Proteus mirabilis = experiment: MIC90 panel, Protocol 2 microdilution broth; format: cell-based; details: 12 isolates
# Excerpt: as §1, §2
# Pseudomonas aeruginosa = experiment: MIC90 panel, Protocol 2 microdilution broth; format: cell-based; details: 12 isolates
# Excerpt: as §1, §2
# Neisseria meningitidis = experiment: MIC90 panel, Protocol #3 agar dilution; format: cell-based; details: 12 isolates
# [12] = test system: Bacteroides and Parabacter spp.; experiment: MIC90 panel, Protocol #3 agar dilution; format: cell-based; details: 26 isolates
# Bacteroides fragilis = experiment: MIC90 panel, Protocol #3 agar dilution; format: cell-based; details: 25 isolates
# Prevotella spp. = experiment: MIC90 panel, Protocol #3 agar dilution; format: cell-based; details: 13 isolates
smiles,measurement,setting,value
"CCNC(=O)Nc1nc2cc(-c3cnc(C(C)(C)O)nc3)c(F)c([C@H]3CCCO3)c2[nH]1 [Compound 24, 1-ethyl-3-[6-fluoro-5-[2-(1-hydroxy-1-methyl-ethyl)pyrimidin-5-yl]-7-[(2R)-tetrahydrofuran-2-yl]-1H-benzimidazol-2-yl]urea]",MIC,[1]; Staphylococcus aureus ATCC 29213,0.021 µg/mL
same,MIC,[1]; Staphylococcus aureus ATCC 29213 with Human Serum,0.15 µg/mL
same,MIC,[1]; Staphylococcus aureus ATCC 29213 with Mouse Serum,0.5 µg/mL
same,MIC,[1]; Staphylococcus aureus ATCC 29213 with Rat Serum,0.18 µg/mL
same,MIC,[2]; Enterococcus faecium ATCC 49624,0.11 µg/mL
same,MIC,[2]; Enterococcus faecium ATCC 49624 with Laked Horse Blood,0.11 µg/mL
same,MIC,[3],0.01 µg/mL
same,MIC,[4],2 µg/mL
same,MIC,[5],4 µg/mL
same,MIC,[6],0.42 µg/mL
same,MIC,[7],1 µg/mL
same,MIC,M. avium 3404.4,0.23 µg/mL
same,MIC,N. asteroids 2039,1 µg/mL
same,MIC,M. kansasii 303,0.03 µg/mL
same,MIC,[8],0.015 µg/mL
same,MIC,[9]; M. tuberculosis Erdman ATCC 35801,0.03 µg/mL
same,MIC,[9]; M. tuberculosis Erdman ATCC 35801 with Mouse Serum,0.5 µg/mL
same,MIC,M. abscessus BB2,1 µg/mL
same,MIC,M. abscessus MC 5931,0.5 µg/mL
same,MIC,M. abscessus MC 5605,1.5 µg/mL
same,MIC,M. abscessus MC 6025,0.75 µg/mL
same,MIC,M. abscessus MC 5908,1 and 1.5
same,MIC,M. abscessus BB5,0.5 µg/mL
same,MIC,M. abscessus MC 5922,0.25 µg/mL
same,MIC,M. abscessus MC 5960,0.5 µg/mL
same,MIC,M. abscessus BB1,2 µg/mL
same,MIC,M. abscessus BB8,0.5 µg/mL
same,MIC90,Staphylococcus aureus,0.03 µg/mL
same,MIC Range,Staphylococcus aureus,0.008 to 0.06 µg/mL
same,MIC Range,[10],0.008 to 0.03 µg/mL
same,MIC90,[10]; Staphylococcus epidermidis,0.03 µg/mL
same,MIC90,Enterococcus faecalis,0.06 µg/mL
same,MIC Range,Enterococcus faecalis,0.015 to 0.12 µg/mL
same,MIC90,Enterococcus faecium,0.12 µg/mL
same,MIC Range,Enterococcus faecium,0.003 to 0.25 µg/mL
same,MIC90,Streptococcus pneumoniae,0.015 µg/mL
same,MIC Range,Streptococcus pneumoniae,0.008 to 0.03 µg/mL
same,MIC90,[11],0.12 µg/mL
same,MIC Range,[11],0.015 to 0.12 µg/mL
same,MIC90,Acinetobacter baumannii,> 8 µg/mL
same,MIC90,Enterobacter cloacae,> 8 µg/mL
same,MIC90,Escherichia coli,> 8 µg/mL
same,MIC90,Haemophilus influenzae,1 µg/mL
same,MIC Range,Haemophilus influenzae,0.06 to 2 µg/mL
same,MIC90,Klebsiella pneumoniae,> 8 µg/mL
same,MIC90,Moraxella catarrhalis,0.03 µg/mL
same,MIC Range,Moraxella catarrhalis,≦0.004-0.03 μg/ml
same,MIC90,Proteus mirabilis,> 8 µg/mL
same,MIC90,Pseudomonas aeruginosa,> 8 µg/mL
same,MIC90,Neisseria meningitidis,0.03 µg/mL
same,MIC Range,Neisseria meningitidis,0.008 to 0.06 µg/mL
same,MIC90,[12],16 µg/mL
same,MIC Range,[12],0.12 to 16 µg/mL
same,MIC90,Bacteroides fragilis,16 µg/mL
same,MIC Range,Bacteroides fragilis,1 to 16 µg/mL
same,MIC90,Prevotella spp.,16 µg/mL
same,MIC Range,Prevotella spp.,0.06 to 16 µg/mL
